In patent EP0545103A1, “Insecticidal, acaricidal and molluscicidal 1-(substituted) thioalkylpyrroles” (priority 1991, dated 1993):

How the values were obtained:
Assay type in all cases: in vivo
[1] = system: Heliothis virescens, egg, tobacco budworm; test: Tobacco budworm egg test, dipped cotton leaf and eggs; parameters: key: 0: no effect; 10-25% kill; 26-35% kill; 36-45% kill; 46-55% kill; 56-65% kill; 66-75% kill; 76-85% kill; 86-99% kill; 9: 100% kill; details: mortality rating after 3 days
Procedure, shortened: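 Scoring is by mortality counts after 3 days, graded on a rating scale. Tobacco budworm eggs (6-30 h old) on cheesecloth and a young cotton leaf were each dipped about 3 s in the test suspension. Suspensions were made from a 10,000 ppm stock in 35% acetone/water with further water dilutions.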

[2] = system: Spodoptera eridania, 3rd instar larvae, southern armyworm; test: Southern armyworm 3rd instar test, dipped limabean leaf; details: for ARMYWORM Day 3: rating at 3 days; for ARMYWORM Day 5: rating at 5 days
Procedure, shortened: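 Ten 3rd instar larvae fed on limabean leaves that had been dipped for 3 s in test solution and dried. Test solutions were diluted in water from a 10,000 ppm stock in 35% acetone/water. Ratings at days 3 and 5 covered death, feeding reduction and abnormal molting.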

[3] = system: Spodoptera eridania, 3rd instar larvae, southern armyworm; test: Southern armyworm 7-day residual test; details: R designates Residual: 7-day residual foliage, concentration not given; for ARMYWORM Day 3 R: rating at 3 days; for ARMYWORM Day 5 R: rating at 5 days
Procedure, shortened: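 Third-instar southern armyworm larvae were exposed to lima bean foliage that had been treated, then held 7 days under greenhouse lamps simulating bright sun for 14 h per day. Treatment solutions were diluted in water from a 10,000 ppm stock in 35% acetone. Results are scale ratings.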

[4] = system: Diabrotic undecimpunctata howardi, 3rd instar southern corn rootworm; test: Southern corn rootworm soil test; parameters: key: 0: no effect; 10-25% kill; 26-35% kill; 36-45% kill; 46-55% kill; 56-65% kill; 66-75% kill; 76-85% kill; 86-99% kill; 9: 100% kill; details: mortality rating after 6 days
Procedure, shortened: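 Soil test with ten 3rd instar larvae per jar, mortality read after 6 days and missing larvae counted as dead; scores on a rating scale. Doses were 1.25 and 0.25 mg a.i. per jar, corresponding to roughly 50 and 10 kg/ha, loaded on talc from acetone and mixed into moist soil with millet seed as food.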

[5] = system: Tetranychus urticae (OP-resistant strain), 2-spotted spider mite; test: 2-spotted spider mite test, dipped infested limabean plants; parameters: key: 0: no effect; 10-25% kill; 26-35% kill; 36-45% kill; 46-55% kill; 56-65% kill; 66-75% kill; 76-85% kill; 86-99% kill; 9: 100% kill; details: for OP-RESISTANT MITES Adult: mortality rating after 2 days; for OP-RESISTANT MITES Egg / OP-RESISTANT MITES Nymph: rating after 5 days
Procedure, shortened: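 Compound dissolved at 10,000 ppm in 35% aqueous acetone, then water-diluted; limabean primary leaves carrying ~100 OP-resistant mites each are dipped 3 s and dried. Adult mortality read on one leaf after 2 days, eggs/newly emerged nymphs on another after 5 days, scored by rating scale.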

[6] = system: Empoasca abrupta, adult, western potato leafhopper; test: Western potato leafhopper systemic uptake test; parameters: key: 0: no effect; 10-25% kill; 26-35% kill; 36-45% kill; 46-55% kill; 56-65% kill; 66-75% kill; 76-85% kill; 86-99% kill; 9: 100% kill; details: 100 ppm; cut stem in emulsion 3 days; mortality rating after 2 days
Procedure, shortened: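 Leafhopper mortality, rated on a scale, scored 2 days after about 10 adults were confined with a leaf in a moist dish. The leaf came from a cut lima bean stem that had taken up the compound emulsion (100 ppm and 10-fold dilutions) over 3 days at 27 °C.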

| SMILES | TOBACCO BUDWORM Egg ([1]; 1000 ppm) | ARMYWORM Day 3 ([2]; 10 ppm) | ARMYWORM Day 5 ([2]; 10 ppm) | ARMYWORM Day 3 ([2]; 100 ppm) | ARMYWORM Day 5 ([2]; 100 ppm) | ARMYWORM Day 3 ([2]; 1000 ppm) | ARMYWORM Day 5 ([2]; 1000 ppm) | ARMYWORM Day 3 R [3] | ARMYWORM Day 5 R [3] | SOUTHERN CORN ROOTWORM ([4]; 1 (ppm as headed)) | SOUTHERN CORN ROOTWORM ([4]; 10 (ppm as headed)) | SOUTHERN CORN ROOTWORM ([4]; 50 (ppm as headed)) | OP-RESISTANT MITES Adult ([5]; 10 ppm) | OP-RESISTANT MITES Egg ([5]; 10 ppm) | OP-RESISTANT MITES Nymph ([5]; 10 ppm) | OP-RESISTANT MITES Adult ([5]; 100 ppm) | OP-RESISTANT MITES Egg ([5]; 100 ppm) | OP-RESISTANT MITES Adult ([5]; 300 ppm) | OP-RESISTANT MITES Egg ([5]; 300 ppm) | LEAFHOPPER Systemic [6] | other results |
| --- | --- | --- | --- | --- | --- | --- | --- | --- | --- | --- | --- | --- | --- | --- | --- | --- | --- | --- | --- | --- | --- |
| N#Cc1c(Br)c(C(F)(F)F)n(CSC2=NCCN2)c1-c1ccc(Cl)cc1 [Example 7] | 9 (100% kill) | 9 (100% kill) | 9 (100% kill) | 9 (100% kill) | 9 (100% kill) | 9 (100% kill) | 9 (100% kill) | 9 (100% kill) | 9 (100% kill) | 0 | 0 | 9 (100% kill) | 9 (100% kill) | 0 | 0 | 9 (100% kill) | 9 (100% kill) | 9 (100% kill) | 0 | 0 | TOBACCO BUDWORM Egg ([1]; 100 ppm): 0; TOBACCO BUDWORM Egg ([1]; 300 ppm): 8 (86-99% kill); OP-RESISTANT MITES Nymph ([5]; 300 ppm): 0 |
| CN(C)C(=S)SCn1c(-c2ccc(Cl)cc2)c(C#N)c(Br)c1C(F)(F)F [Example 24] | 0 | 9 (100% kill) | 9 (100% kill) | 9 (100% kill) | 9 (100% kill) | 9 (100% kill) | 9 (100% kill) | 9 (100% kill) | 9 (100% kill) | 0 | 0 | 9 (100% kill) | 9 (100% kill) | 0 | 0 | 9 (100% kill) | 9 (100% kill) | 0 | 9 (100% kill) | 0 |  |
